Measurements reported in the NIST ThermoML archive (doi:10.1021/je200668a).
“And” between values parts separate entries of the source, which are not always exact repeats. Equal values may be shown once. Numbers after ± are expanded uncertainties.

Conditions: Liquid, Pulse Transmission

## O [water]
252.47 K, 215100 kPa
  speed of sound: 1715.3 ± 2.8 m/s
252.47 K, 220000 kPa
  speed of sound: 1725.1 ± 2.8 m/s
252.5 K, 205200 kPa
  speed of sound: 1695.9 ± 2.7 m/s
252.5 K, 209900 kPa
  speed of sound: 1705.2 ± 2.8 m/s
252.5 K, 215300 kPa
  speed of sound: 1716.8 ± 2.8 m/s
252.5 K, 240000 kPa
  speed of sound: 1764.3 ± 2.8 m/s
252.51 K, 220200 kPa
  speed of sound: 1726.7 ± 2.8 m/s
252.51 K, 235100 kPa
  speed of sound: 1754.9 ± 2.9 m/s
252.51 K, 245400 kPa
  speed of sound: 1774.8 ± 2.8 m/s
252.52 K, 210100 kPa
  speed of sound: 1705.8 ± 2.8 m/s and 1706 ± 2.8 m/s
252.52 K, 244900 kPa
  speed of sound: 1773.9 ± 2.8 m/s
252.53 K, 200100 kPa
  speed of sound: 1685.4 ± 2.7 m/s
252.53 K, 204800 kPa
  speed of sound: 1695.3 ± 2.7 m/s
252.53 K, 215300 kPa
  speed of sound: 1716.3 ± 2.8 m/s
252.53 K, 225100 kPa
  speed of sound: 1735.1 ± 2.8 m/s
252.53 K, 230000 kPa
  speed of sound: 1745 ± 2.8 m/s and 1745.4 ± 2.8 m/s
252.53 K, 240100 kPa
  speed of sound: 1764.5 ± 2.8 m/s
252.54 K, 235200 kPa
  speed of sound: 1755.1 ± 2.9 m/s
252.54 K, 239200 kPa
  speed of sound: 1762.7 ± 2.8 m/s
252.54 K, 245000 kPa
  speed of sound: 1774.1 ± 2.8 m/s
252.55 K, 225000 kPa
  speed of sound: 1736.1 ± 2.8 m/s
252.56 K, 204900 kPa
  speed of sound: 1695.4 ± 2.7 m/s
252.57 K, 198900 kPa
  speed of sound: 1683.1 ± 2.7 m/s
252.57 K, 199400 kPa
  speed of sound: 1684.1 ± 2.7 m/s
252.57 K, 229900 kPa
  speed of sound: 1744.6 ± 2.8 m/s
252.57 K, 235200 kPa
  speed of sound: 1754.8 ± 2.9 m/s
252.59 K, 225100 kPa
  speed of sound: 1735.8 ± 2.8 m/s
252.61 K, 220300 kPa
  speed of sound: 1726.3 ± 2.8 m/s
257.59 K, 225300 kPa
  speed of sound: 1755 ± 2.7 m/s
257.6 K, 175100 kPa
  speed of sound: 1654.5 ± 2.6 m/s
257.61 K, 199500 kPa
  speed of sound: 1703.9 ± 2.7 m/s
257.61 K, 275200 kPa
  speed of sound: 1847.7 ± 2.6 m/s
257.62 K, 274400 kPa
  speed of sound: 1845.4 ± 2.9 m/s
257.64 K, 250200 kPa
  speed of sound: 1801.3 ± 2.6 m/s
257.65 K, 224100 kPa
  speed of sound: 1752.6 ± 2.8 m/s
257.65 K, 276100 kPa
  speed of sound: 1848.6 ± 2.9 m/s
257.66 K, 199900 kPa
  speed of sound: 1705.5 ± 2.6 m/s
257.66 K, 299900 kPa
  speed of sound: 1889.6 ± 3 m/s
257.67 K, 249400 kPa
  speed of sound: 1799.8 ± 2.8 m/s
257.67 K, 299700 kPa
  speed of sound: 1889.4 ± 3 m/s
257.67 K, 300200 kPa
  speed of sound: 1890.9 ± 2.6 m/s
257.67 K, 374600 kPa
  speed of sound: 2011.2 ± 3.3 m/s
257.68 K, 325400 kPa
  speed of sound: 1932.5 ± 3.1 m/s
257.68 K, 375300 kPa
  speed of sound: 2012.5 ± 3.3 m/s
257.69 K, 176400 kPa
  speed of sound: 1657.4 ± 2.6 m/s
257.69 K, 199600 kPa
  speed of sound: 1704.5 ± 2.7 m/s
257.69 K, 249500 kPa
  speed of sound: 1800.5 ± 2.8 m/s
257.69 K, 349300 kPa
  speed of sound: 1972.1 ± 3.2 m/s
257.69 K, 350000 kPa
  speed of sound: 1972.9 ± 3.2 m/s
257.7 K, 176200 kPa
  speed of sound: 1657.4 ± 2.6 m/s
257.7 K, 224600 kPa
  speed of sound: 1754 ± 2.8 m/s
257.7 K, 325000 kPa
  speed of sound: 1928.5 ± 2.6 m/s
257.7 K, 325400 kPa
  speed of sound: 1932.5 ± 3.1 m/s
262.63 K, 299800 kPa
  speed of sound: 1906 ± 3 m/s
262.65 K, 224800 kPa
  speed of sound: 1771.8 ± 2.7 m/s
262.68 K, 250600 kPa
  speed of sound: 1820.4 ± 2.9 m/s
262.71 K, 324500 kPa
  speed of sound: 1944.4 ± 3.1 m/s
262.71 K, 349400 kPa
  speed of sound: 1982.7 ± 3.2 m/s
262.71 K, 399900 kPa
  speed of sound: 2060 ± 3.3 m/s
262.72 K, 274600 kPa
  speed of sound: 1861.2 ± 2.9 m/s
262.72 K, 374300 kPa
  speed of sound: 2023.2 ± 3.2 m/s
262.72 K, 424300 kPa
  speed of sound: 2095.3 ± 3.4 m/s
262.73 K, 249700 kPa
  speed of sound: 1816.5 ± 2.8 m/s
262.73 K, 299400 kPa
  speed of sound: 1903.1 ± 3 m/s
262.73 K, 324600 kPa
  speed of sound: 1945.1 ± 3.1 m/s
262.73 K, 349600 kPa
  speed of sound: 1984.2 ± 3.2 m/s
262.74 K, 124100 kPa
  speed of sound: 1574.1 ± 2.5 m/s
262.74 K, 199800 kPa
  speed of sound: 1725.4 ± 2.8 m/s
262.74 K, 299600 kPa
  speed of sound: 1903.2 ± 3 m/s
262.74 K, 425600 kPa
  speed of sound: 2097.8 ± 3.4 m/s
262.74 K, 449400 kPa
  speed of sound: 2130.8 ± 3.5 m/s
262.74 K, 450500 kPa
  speed of sound: 2133 ± 3.5 m/s
262.75 K, 274500 kPa
  speed of sound: 1860.6 ± 2.9 m/s
262.76 K, 148400 kPa
  speed of sound: 1623.4 ± 2.6 m/s
262.76 K, 150700 kPa
  speed of sound: 1629.8 ± 2.6 m/s
262.76 K, 199800 kPa
  speed of sound: 1724.8 ± 2.8 m/s
262.76 K, 224600 kPa
  speed of sound: 1772.3 ± 2.7 m/s
262.76 K, 251000 kPa
  speed of sound: 1819.5 ± 2.8 m/s
262.76 K, 350600 kPa
  speed of sound: 1986.4 ± 3.2 m/s
262.76 K, 375100 kPa
  speed of sound: 2023 ± 3.2 m/s
262.76 K, 399300 kPa
  speed of sound: 2058.1 ± 3.3 m/s
262.77 K, 126300 kPa
  speed of sound: 1578.6 ± 2.4 m/s
262.77 K, 174800 kPa
  speed of sound: 1677.2 ± 2.6 m/s and 1676.9 ± 2.6 m/s
262.78 K, 399700 kPa
  speed of sound: 2061.2 ± 3.3 m/s
262.81 K, 149800 kPa
  speed of sound: 1626.1 ± 2.6 m/s
262.81 K, 200800 kPa
  speed of sound: 1728.7 ± 2.8 m/s
267.77 K, 199500 kPa
  speed of sound: 1744.1 ± 2.6 m/s
267.78 K, 100800 kPa
  speed of sound: 1554.9 ± 2.3 m/s
267.78 K, 300400 kPa
  speed of sound: 1918.4 ± 3 m/s
267.78 K, 349700 kPa
  speed of sound: 1997.2 ± 3.2 m/s
267.79 K, 149600 kPa
  speed of sound: 1649.8 ± 2.6 m/s and 1648.8 ± 2.6 m/s
267.79 K, 399600 kPa
  speed of sound: 2070.9 ± 3.2 m/s
267.79 K, 500400 kPa
  speed of sound: 2208.8 ± 3.5 m/s
267.8 K, 249400 kPa
  speed of sound: 1833.6 ± 2.9 m/s
267.8 K, 449300 kPa
  speed of sound: 2141.5 ± 3.5 m/s
267.81 K, 98500 kPa
  speed of sound: 1551.2 ± 2.3 m/s
267.82 K, 400000 kPa
  speed of sound: 2071.6 ± 3.2 m/s
267.84 K, 100500 kPa
  speed of sound: 1554.9 ± 2.3 m/s
267.84 K, 199500 kPa
  speed of sound: 1744.6 ± 2.6 m/s
267.84 K, 450700 kPa
  speed of sound: 2144.1 ± 3.4 m/s
267.84 K, 500100 kPa
  speed of sound: 2209.7 ± 3.5 m/s
267.85 K, 299400 kPa
  speed of sound: 1918.6 ± 3 m/s
267.86 K, 399700 kPa
  speed of sound: 2071.2 ± 3.2 m/s
267.87 K, 249600 kPa
  speed of sound: 1835 ± 2.9 m/s
267.87 K, 251100 kPa
  speed of sound: 1837.5 ± 2.9 m/s
267.87 K, 349700 kPa
  speed of sound: 1997.5 ± 3.2 m/s
267.87 K, 449200 kPa
  speed of sound: 2142.4 ± 3.5 m/s
267.88 K, 150800 kPa
  speed of sound: 1652.5 ± 2.5 m/s
267.88 K, 299600 kPa
  speed of sound: 1919.3 ± 3 m/s
